Data from PubChem BioAssay AID1918999 (Molecular Pharmacology Branch, DTP, NCI, 2023).
Several values for one entry are separate records, joined by “and”; a condition that tells them apart may be missing. Equal values may be shown once.

System: 556581-035-R-J1-PDC complex spheroid growth
Assay: Anticancer human tumor 556581-035-R-J1-PDC patient-derived ovarian carcinoma cell line growth inhibition [AhR]
Conditions: for viability, T/C: stronger effect = lower value
Description: Multicellular complex tumor spheroid response to aryl hydrocarbon receptor antagonists in combination with a variety of drugs and investigational agents in selected tumor cell lines
The current study was undertaken to assess response to aryl hydrocarbon receptor antagonists in combination with standard-of-care drugs and investigational agents in solid tumor complex spheroid models. Complex spheroids include a stromal component modeled by human endothelial cells (HUVEC) and fibroblasts modeled by human mesenchymal stem cells (MSCs). The concentration ranges selected for each drug and investigational agent were based upon clinically achievable concentrations if the clinical Cmax of the agent was known.
Compounds. The drugs and investigational agents: BAY 2416964 (NSC825713), GNF351 (NSC835774), CH-223191 (NSC835775), CPI-455 (NSC825282), aza-TdCyd (NSC777586), decitabine (NSC127716), belinostat (NSC758774), entinostat (NSC756642), pevonedistat (NSC761192), tazemetostat (NSC777109), talazoparib (NSC765396), olaparib (NSC753686), selinexor (NSC780203), nedisertib (M3814, NSC802822), bortezomib (NSC756655), venetoclax (NSC766270), doxorubicin (NSC123127), elimusertib (BAY189344, NSC800525), ceralasertib (AZD6738, NSC777638), TAK-243 (NSC785004), alisertib (NSC759677), etoposide (NSC141540), topotecan (NSC609699), eribulin (NSC707389), gemcitabine (NSC613327), carboplatin (NSC241240), cisplatin (NSC119875), and SN-38 (NSC673596) were obtained from the National Cancer Institute (NCI) Developmental Therapeutics Program Chemical Repository (32). The FDA-approved anticancer drug set is available from the Developmental Therapeutics Program at https://dtp.cancer.gov/organization/dscb/obtaining/available plates.htm. […] The stock solutions were prepared in dimethyl sulfoxide (DMSO, Sigma-Aldrich, St. Louis, MO, cat. D2650), except for the platinum compounds which were prepared in saline (Quality Biological, Gaithersburg, MD, cat. 114-055-101), at 800-fold the tested concentration and stored at -70 degrees C prior to their use. All drugs and investigational agents were tested over a range starting from a high concentration at or near the clinical Cmax and decreasing in half-log increments. If the clinical Cmax for an agent had not been determined, the highest concentration tested was 10 microM (Table 1).
Cell Culture. All cells were maintained in an incubator at 37 degrees C and 5% CO2 with 95% humidity. The PDC lines were cultured according to standard operating procedures established by the NCI PDMR (https://pdmr.cancer.gov). Briefly, all PDCs were thawed and cultured in Matrigel-coated flasks prepared with a working solution of 1X Ham's F-12 nutrient mix, without supplementation (Invitrogen, Waltham, MA, cat. 11765054), 100 U/mL penicillin-streptomycin (Invitrogen, cat. 15140122), and 2.5% Matrigel (Corning Inc., Corning, NY, cat. 354248) for the first three passages. All PDCs were cultured in complete DMEM/F-12 media containing advanced DMEM/F-12 (Invitrogen, cat. 12634028), 4.9% defined fetal bovine serum, heat inactivated (HyClone Laboratories Inc., Logan, UT, cat. SH30070.03HI), 389 ng/mL hydrocortisone (Sigma-Aldrich, cat. H4001), 9.7 ng/mL human EGF recombinant protein (Invitrogen, cat. PHG0313), 23.4 microg/mL adenine (Sigma-Aldrich, cat. A2786), 97.3 U/mL penicillin-streptomycin (Invitrogen, cat. 15140122), 1.9 mM L-glutamine (Invitrogen, cat. 25030081), and 9.7 microM Y-27632 dihydrochloride (Tocris Bioscience, Bristol, United Kingdom, cat. 1254). The PDCs were cultured in complete DMEM/F12 media without 10 microM Y-27632 dihydrochloride for at least two passages prior to the screen. The established cell lines NCI-H1341 and […] were cultured in DMEM/F-12, HEPES (Invitrogen, cat. 11330032), 5% defined fetal bovine serum (HyClone Laboratories Inc., cat. SH30070.03), ITS premix universal culture supplement [insulin (5 microg/mL), transferrin (5 microg/mL), and selenious acid (5 ng/mL)] […]
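For viability, T/C in this document: compound exposure lasted 7 days; 100% = DMSO vehicle control growth.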

Row | SMILES | IC50 (curve of compound) | viability, T/C (compound 0.0316 µM) | viability, T/C (compound 0.1 µM) | viability, T/C (compound 0.316 µM) | viability, T/C (compound 1 µM) | viability, T/C (compound 3.16 µM) | viability, T/C (compound 10 µM) | other results
1 | Cc1ccccc1N=Nc1ccc(NC(=O)c2ccnn2C)c(C)c1 |  |  |  |  | 99.6% [middle of 20 runs] |  |  | IC50 (compound alone, run of 06/14/2022): > 10000 nM
2 | Cc1cncc(-c2nc(NCCc3c[nH]c4ccccc34)c3ncn(C(C)C)c3n2)c1 |  |  |  | 103% [middle of 20 runs] |  |  | 83.6% [middle of 20 runs] | IC50 (compound alone, run of 06/06/2022): > 10000 nM
3 | Nc1ccccc1NC(=O)c1ccc(CNC(=O)OCc2cccnc2)cc1 | 1860 nM and 2090 nM and 887 nM | 107% and 100% and 98.1% | 90.8% and 105% and 99% | 90.4% and 74.8% and 71.6% | 63.6% and 66.1% and 48.9% | 37.2% and 42.8% and 26.6% | 19.1% and 17% and 18.4% | 
4 | O=C(C=Cc1cccc(S(=O)(=O)Nc2ccccc2)c1)NO | 1250 nM and 1330 nM and 1110 nM | 104% and 98.7% and 101% | 105% and 99.7% and 84.2% | 85.4% and 76.4% and 76.7% | 54.8% and 58.9% and 56.1% | 25.9% and 28.1% and 21.8% | 3.85% and 5.28% and 4.17% | 
5 | O=C(C=Cn1cnc(-c2cc(C(F)(F)F)cc(C(F)(F)F)c2)n1)NNc1cnccn1 | 2220 nM and > 3000 nM |  |  |  |  |  |  | viability, T/C (compound 0.00949 µM): 91.3% (2×) and 109%; viability, T/C (compound 0.03 µM): 104% and 93.8% and 98.7%; viability, T/C (compound 0.0949 µM): 89.4% and 85% and 83.4%; viability, T/C (compound 0.3 µM): 80.2% and 78.5% and 72.8%; viability, T/C (compound 0.949 µM): 65.8% and 77.7% and 69.5%; viability, T/C (compound 3 µM): 44.5% and 54% and 67.8%
6 | O=C(c1cc(Cc2n[nH]c(=O)c3ccccc23)ccc1F)N1CCN(C(=O)C2CC2)CC1 | > 10000 nM | 100% and 98.6% and 97.2% | 103% and 96.9% and 88.5% | 95.3% and 93.3% and 86.6% | 102% and 93.8% and 87.4% | 94.5% and 91.3% and 93.1% | 74.8% and 82.6% and 69.8% | 

Continued, in another order:

Row | IC50 (curve of compound) | SMILES | viability, T/C (compound 0.0316 µM) | viability, T/C (compound 0.1 µM) | viability, T/C (compound 0.316 µM) | viability, T/C (compound 1 µM) | viability, T/C (compound 3.16 µM) | viability, T/C (compound 10 µM) | other results
7 | 388 nM and 386 nM and 366 nM | COc1cccc2c1C(=O)c1c(O)c3c(c(O)c1C2=O)CC(O)(C(=O)CO)CC3OC1CC(N)C(O)C(C)O1 (stereo not given) | 90.7% and 86.7% and 84.5% | 89% and 78.2% and 76.5% | 58.8% and 57.2% and 55% | 9.14% and 19.1% and 19.5% | 1.93% and 3.75% and 4.65% | 3.8% and 2.01% and 3.67% | 
8 | > 100 nM | Cn1ncnc1C1c2n[nH]c(=O)c3cc(F)cc(c23)NC1c1ccc(F)cc1 (stereo not given) | 100% (2×) and 103% | 94.4% and 98.2% and 94.7% |  |  |  |  | viability, T/C (compound 0.000316 µM): 108% and 106% and 107%; viability, T/C (compound 0.001 µM): 103% and 101% and 102%; viability, T/C (compound 0.00316 µM): 101% and 93.3% and 98.7%; viability, T/C (compound 0.01 µM): 92.7% and 93.9% and 101%
9 | > 10000 nM | NS(=O)(=O)OCC1CC(n2ccc3c(NC4CCc5ccccc54)ncnc32)CC1O (stereo not given) | 100% and 99.4% and 89% | 109% and 118% and 98.8% | 100% and 104% and 111% | 90% and 108% and 103% | 88% and 106% and 113% | 73.4% and 86.2% and 81.5% | 
10 | < 31.6 nM | Nc1ccn(C2OC(CO)C(O)C2(F)F)c(=O)n1 (stereo not given) | 32.3% and 35% and 33.6% | 38.3% and 35.4% and 37.6% | 32.6% and 36.3% and 46.9% | 37.1% and 36.9% and 40.4% | 39.2% and 35.1% and 36.5% | 31.2% and 31.4% and 32.4% | 
11 | > 1000 nM | Nc1ncn(C2CC(O)C(CO)O2)c(=O)n1 (stereo not given) | 91.6% and 90.4% and 90.8% | 95.1% and 95.6% and 86.2% | 95.8% and 81.7% and 82.5% | 83.9% and 75.5% and 76.9% |  |  | viability, T/C (compound 0.00316 µM): 90.6% and 101% and 102%; viability, T/C (compound 0.01 µM): 101% (2×) and 105%
12 | > 300 nM | Nc1ncn(C2CC(O)C(CO)S2)c(=O)n1 (stereo not given) |  |  |  |  |  |  | viability, T/C (compound 0.000949 µM): 92% and 102% and 111%; viability, T/C (compound 0.003 µM): 109% and 115% and 113%; viability, T/C (compound 0.00949 µM): 102% and 106% and 113%; viability, T/C (compound 0.03 µM): 88% and 106% and 100%; viability, T/C (compound 0.0949 µM): 82.2% and 87.7% and 100%; viability, T/C (compound 0.3 µM): 67.3% and 67.2% and 64.9%
